Measured values as given in patent US12049450B2, “Pyridyloxy-carboxylate derivative and preparation method therefor, herbicidal composition, and use” (Qingdao Kingagroot Chemical Compound Co., Ltd., priority 2018, dated 2024).

How the values were obtained:
Assay in all cases: Post-emergence test experiment (greenhouse pot, spray at 2-3 leaf stage)
Assay type in all cases: in vivo
Conditions in all cases: 1000 g/ha; post-emergence spray at 2-3 leaf stage; assessed after 3 weeks; fresh weight inhibition rate
Abutilon theophrasti = tested on: Abutilon theophrasti
Outline: (§1)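 Weed seeds sown in soil-filled pots in greenhouse, sprayed at 2-3 leaf stage (2 weeks after sowing) with compound in acetone/tween-80 plus methyl oleate emulsible concentrate (1.5 L/ha) diluted in water. Fresh-weight growth inhibition scored after 3 weeks on 0-5 scale (5: >85%, 0: <5%).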

Digitaria sanguinalis = tested on: Digitaria sanguinalis
Outline: as §1

Echinochloa crusgalli = tested on: Echinochloa crusgalli
Outline: as §1

Galium spurium = tested on: Galium spurium
Outline: as §1

Monochoria vaginalis = tested on: Monochoria vaginalis
Outline: as §1

| SMILES | Activity level (growth inhibition rate) Abutilon theophrasti (Abutilon theophrasti) | Activity level (growth inhibition rate) Digitaria sanguinalis (Digitaria sanguinalis) | Activity level (growth inhibition rate) Echinochloa crusgalli (Echinochloa crusgalli) | Activity level (growth inhibition rate) Galium spurium (Galium spurium) | Activity level (growth inhibition rate) Monochoria Vaginalis (Monochoria vaginalis) |
| --- | --- | --- | --- | --- | --- |
| CC(Oc1nc(F)c(Cl)c(N)c1Cl)C(=O)OCc1cc2ccccc2s1 (stereo not drawn) [Compound 177] | 5 (Level 5: the growth inhibition rate is greater than 85%) | 5 (Level 5: the growth inhibition rate is greater than 85%) | 5 (Level 5: the growth inhibition rate is greater than 85%) | 5 (Level 5: the growth inhibition rate is greater than 85%) | 5 (Level 5: the growth inhibition rate is greater than 85%) |
| CC(Oc1nc(F)c(Cl)c(N)c1Cl)C(=O)OCc1nc2ccccc2s1 (stereo not drawn) [Compound 178] | 5 (Level 5: the growth inhibition rate is greater than 85%) | 5 (Level 5: the growth inhibition rate is greater than 85%) | 5 (Level 5: the growth inhibition rate is greater than 85%) | 5 (Level 5: the growth inhibition rate is greater than 85%) | 5 (Level 5: the growth inhibition rate is greater than 85%) |
| CC(Oc1nc(F)c(Cl)c(N)c1Cl)C(=O)SCCc1ccc2ccsc2c1 (stereo not drawn) [Compound 179] | 5 (Level 5: the growth inhibition rate is greater than 85%) | 5 (Level 5: the growth inhibition rate is greater than 85%) | 5 (Level 5: the growth inhibition rate is greater than 85%) | 5 (Level 5: the growth inhibition rate is greater than 85%) | 5 (Level 5: the growth inhibition rate is greater than 85%) |
| CC(Oc1nc(F)c(Cl)c(N)c1Cl)C(=O)OCc1ccc2ncsc2c1 (stereo not drawn) [Compound 180] | 5 (Level 5: the growth inhibition rate is greater than 85%) | 5 (Level 5: the growth inhibition rate is greater than 85%) | 5 (Level 5: the growth inhibition rate is greater than 85%) | 5 (Level 5: the growth inhibition rate is greater than 85%) | 5 (Level 5: the growth inhibition rate is greater than 85%) |
| CC(Oc1nc(F)c(Cl)c(N)c1Cl)C(=O)OCc1ccc2ccccc2c1 (stereo not drawn) [Compound 181] | 5 (Level 5: the growth inhibition rate is greater than 85%) | 5 (Level 5: the growth inhibition rate is greater than 85%) | 5 (Level 5: the growth inhibition rate is greater than 85%) | 5 (Level 5: the growth inhibition rate is greater than 85%) | 5 (Level 5: the growth inhibition rate is greater than 85%) |
| CC(Oc1nc(F)c(Cl)c(N)c1Cl)C(=O)SCc1ccc2cc(Cl)ccc2c1 (stereo not drawn) [Compound 182] | 5 (Level 5: the growth inhibition rate is greater than 85%) | 5 (Level 5: the growth inhibition rate is greater than 85%) | 5 (Level 5: the growth inhibition rate is greater than 85%) | 5 (Level 5: the growth inhibition rate is greater than 85%) | 5 (Level 5: the growth inhibition rate is greater than 85%) |
| COc1ccc2ccc(COC(=O)C(C)Oc3nc(F)c(Cl)c(N)c3Cl)cc2c1 (stereo not drawn) [Compound 183] | 5 (Level 5: the growth inhibition rate is greater than 85%) | 5 (Level 5: the growth inhibition rate is greater than 85%) | 5 (Level 5: the growth inhibition rate is greater than 85%) | 5 (Level 5: the growth inhibition rate is greater than 85%) | 5 (Level 5: the growth inhibition rate is greater than 85%) |
| CC(Oc1nc(F)c(Cl)c(N)c1Cl)C(=O)OCc1ccc2cnccc2c1 (stereo not drawn) [Compound 184] | 5 (Level 5: the growth inhibition rate is greater than 85%) | 5 (Level 5: the growth inhibition rate is greater than 85%) | 5 (Level 5: the growth inhibition rate is greater than 85%) | 5 (Level 5: the growth inhibition rate is greater than 85%) | 5 (Level 5: the growth inhibition rate is greater than 85%) |
| CC(Oc1nc(F)c(Cl)c(N)c1Cl)C(=O)OCc1ccc2nccnc2c1 (stereo not drawn) [Compound 186] | 5 (Level 5: the growth inhibition rate is greater than 85%) | 5 (Level 5: the growth inhibition rate is greater than 85%) | 5 (Level 5: the growth inhibition rate is greater than 85%) | 5 (Level 5: the growth inhibition rate is greater than 85%) | 5 (Level 5: the growth inhibition rate is greater than 85%) |
| CC(Oc1nc(F)c(Cl)c(N)c1Cl)C(=O)OCCc1cccc2cnncc12 (stereo not drawn) [Compound 187] | 5 (Level 5: the growth inhibition rate is greater than 85%) | 5 (Level 5: the growth inhibition rate is greater than 85%) | 5 (Level 5: the growth inhibition rate is greater than 85%) | 5 (Level 5: the growth inhibition rate is greater than 85%) | 5 (Level 5: the growth inhibition rate is greater than 85%) |
| CC(Oc1nc(F)c(Cl)c(N)c1Cl)C(=O)SCc1ccc2nnccc2c1 (stereo not drawn) [Compound 188] | 5 (Level 5: the growth inhibition rate is greater than 85%) | 5 (Level 5: the growth inhibition rate is greater than 85%) | 5 (Level 5: the growth inhibition rate is greater than 85%) | 5 (Level 5: the growth inhibition rate is greater than 85%) | 5 (Level 5: the growth inhibition rate is greater than 85%) |
| CC(Oc1nc(F)c(Cl)c(N)c1Cl)C(=O)OCc1ccc2c(c1)OCCO2 (stereo not drawn) [Compound 189] | 5 (Level 5: the growth inhibition rate is greater than 85%) | 5 (Level 5: the growth inhibition rate is greater than 85%) | 5 (Level 5: the growth inhibition rate is greater than 85%) | 5 (Level 5: the growth inhibition rate is greater than 85%) | 5 (Level 5: the growth inhibition rate is greater than 85%) |
